Results from US11766434B2, “Pyrimidinone derivatives as CDC7 inhibitors” (Cancer Research Technology Limited, priority 2016, dated 2023).

What was measured:
Cdc7 [1] = biological target: T1, Cdc7 (Homo sapiens, UniProt O00311); experiment: Cdc7 cell pharmacodynamics assay Method 2: pS40MCM2 levels in HCT116 cells; type: cell-based; set-up: endogenous in cells; settings: 18 hours treatment, read-out: Biomarker Method 2 (pEC50) (converted)
Excerpt: This protocol describes a method to investigate the inhibition of Cdc7 activity by measuring pS40MCM2 levels in cells, after treatment with compounds.
• HCT116 cells (ATCC, #CCL-247) • McCoys 5A with L-glutamine (Cellgro, #10-050-CV) • 10% FCS (Cellgro, #35-010-CV) • D-PBS without CaCl2 and MgCl2 (Cellgro, #21-031-CV) • Trypsin/EDTA (Cellgro, #25-052-CL) • BSA (Calbiochem, 126593) • Cell Extraction Buffer (Invitrogen FNN0011) • Protease inhibitor cocktail (Sigma P-2714) • PMSF 0.3M stock in DMSO (Sigma P7626) • Antibody—rabbit pMCM2 Ser40 (Abeam, AB133243) • Antibody—goat MCM2 (Bethyl #A300-122A) • Antibody—goat Anti Rabbit IgG HRP (Thermo, 31462) • SuperSignal ELISA Pico Chemiluminescent Substrate (Perbio Science UK Ltd 37069) • 10×PBS (Growcells, MRGF-6236) • Triton X100 (Sigma, P-T8787) • DMSO (Fisher, D128-1) • 2-Propanol (J. T. Baker, 9095-03) Method • Seed 1×10^6 HCT116 cells into each of two 175 cm^2 flask containing 30 mL Cell Growth Media and incubate at 37° C., 5% CO2 for 3 days. • Harvest the cells from one T175 cm^2 flask and count. • Dilute with Cell Growth Media to a cell density of 2×10^5. Dispense 100 μL to each well (20,000 HCT116 cells/well) of TC treated 96-well plate(s). • Allow cells to settle overnight in incubator set at 37° C. and 5% CO2. • Cell treatment: Transfer 0.25 μL/well from the compound plate to the wells of the cell plate(s). This is a 1:400 dilution of compound in the assay. • Once all cells are treated place the cells back to the incubator and incubate for 18 hours. • Dilute the capture antibody (total MCM2 #A300-122A) 1 in 250 in the required volume of PBS (5 mL per assay plate, plus 5 mL for dead volume) and add 50 μL to each well of a Hybond plate except wells A12 & B12. Seal the plate and incubate at room temperature fora minimum of 2 hours. • Defrost aliquot of Invitrogen Cell Extraction Buffer (FNN0011) on ice and supplement with appropriate volume of both Sigma protease inhibitor cocktail (P-2714) and PMSF (final cone 1 mM from a 1 M stock in DMSO). • After the 6 hour or 18 hour cell treatment time, tap out the media from the assay plates and place them in the −70° C. freezer for at least 5 minutes. • Flick out the remaining liquid in the previously prepared capture Ab plate(s) and add 200 μL 2% BSA per well. Incubate for 1 hour at room temperature. • Remove plates from freezer and add 20 μL of ice cold complete lysis buffer. Incubate cells for 30 minutes at 4° C. • Add 30 μL per well 2% BSA • At the end of the 1 hour incubation, wash the Capture/ELISA plate(s) with Wash Buffer on the BioTek plate washer. • Transfer 40 μL per well of the lysis plate(s) to the same wells in the Capture/ELISA plate. Incubate cells overnight at 4° C. • At the end of the overnight incubation, wash the ELISA plate(s) with Wash Buffer on BioTek plate washer. • Prepare Detection Antibody Buffer and dispense 50 μL to all wells of ELISA plate(s) except wells G1 & H1. Cover plate and incubate at room temperature for 2 hours with gentle shaking. • At the end of the 2 hour incubation, wash the ELISA plate(s) with Wash Buffer on the BioTek plate washer. • Prepare the Conjugated Antibody Buffer and dispense 50 μL to all wells of ELISA plate(s). • Cover the plate and incubate at room temperature for 1 hour with gentle shaking. • At the end of the 1 hour incubation, wash the ELISA plate(s) with Wash Buffer on the BioTek plate washer. • Prepare Substrate Buffer and dispense 50 μL to all wells of ELISA plate(s). • Incubate for a minimum of 10 minutes and read plates on the EnVision 2100 Multilabel Reader (Mirror: Luminescence (404) & Luminescence 700 (212); Measurement Height: 6.5 mm; Measurement Time: 0.2 s). Method 3

Cdc7/ASK = Cdc7/ASK (Homo sapiens, UniProt O00311); experiment: Cdc7 biochemical assay Method 1: 384 well ELISA, MCM2 whole protein substrate, Phospho MCM2 (S53) antibody; set-up: purchased; settings: ATP 2 μM, 90 minutes, read-out: Biochemical method 1 (pIC50) (converted)
Cdc7/ASK, sequence (O00311 whole entry): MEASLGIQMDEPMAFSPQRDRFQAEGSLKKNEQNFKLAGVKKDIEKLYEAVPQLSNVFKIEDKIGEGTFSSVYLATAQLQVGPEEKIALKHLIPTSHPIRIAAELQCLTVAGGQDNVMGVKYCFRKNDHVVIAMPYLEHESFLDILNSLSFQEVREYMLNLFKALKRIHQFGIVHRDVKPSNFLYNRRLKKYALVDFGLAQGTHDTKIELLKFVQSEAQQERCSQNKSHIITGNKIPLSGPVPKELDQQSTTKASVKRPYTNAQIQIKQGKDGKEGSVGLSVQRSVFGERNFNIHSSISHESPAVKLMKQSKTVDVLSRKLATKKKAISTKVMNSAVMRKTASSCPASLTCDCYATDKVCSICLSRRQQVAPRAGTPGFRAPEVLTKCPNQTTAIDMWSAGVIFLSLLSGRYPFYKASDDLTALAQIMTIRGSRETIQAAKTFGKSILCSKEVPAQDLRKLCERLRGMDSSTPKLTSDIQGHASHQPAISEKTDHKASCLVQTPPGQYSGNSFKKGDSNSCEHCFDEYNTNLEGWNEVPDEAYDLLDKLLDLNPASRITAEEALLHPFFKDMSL
Cdc7/ASK, sequence (Q9UBU7 whole entry partner): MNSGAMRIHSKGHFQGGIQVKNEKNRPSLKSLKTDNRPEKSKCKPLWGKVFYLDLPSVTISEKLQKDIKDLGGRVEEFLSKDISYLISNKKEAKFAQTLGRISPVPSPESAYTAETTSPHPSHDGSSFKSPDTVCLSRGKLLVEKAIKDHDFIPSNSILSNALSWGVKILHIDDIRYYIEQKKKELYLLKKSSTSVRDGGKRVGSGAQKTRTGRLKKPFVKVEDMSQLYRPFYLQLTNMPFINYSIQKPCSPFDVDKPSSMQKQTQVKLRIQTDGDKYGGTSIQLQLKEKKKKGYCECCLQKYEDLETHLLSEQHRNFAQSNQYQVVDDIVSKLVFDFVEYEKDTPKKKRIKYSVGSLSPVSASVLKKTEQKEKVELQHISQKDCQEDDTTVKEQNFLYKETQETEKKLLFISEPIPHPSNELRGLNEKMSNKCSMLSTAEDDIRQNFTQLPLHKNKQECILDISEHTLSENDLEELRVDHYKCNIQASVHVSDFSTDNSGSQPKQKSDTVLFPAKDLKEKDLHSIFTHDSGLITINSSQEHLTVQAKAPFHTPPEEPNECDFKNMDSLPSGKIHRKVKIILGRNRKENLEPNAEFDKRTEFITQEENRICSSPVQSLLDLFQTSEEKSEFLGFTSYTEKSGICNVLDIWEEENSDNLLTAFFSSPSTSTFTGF
Experimental: This protocol describes a method for assaying Cdc7/ASK for activity. The assay is a 384 well ELISA assay, utilising a whole protein substrate (MCM2) and an antibody against Phospho MCM2 (S53). This site is thought to be specific to Cdc7/ASK phosphorylation and the assay has been validated using knockout mutants.
• TBS: 25 mM Tris pH 7.2, 150 mM NaCl. (Dilute 10× stock by 1:10). • Wash Buffer: TBS+0.05% Tween 20. (Add 100 mL 1 M Tris pH 7.2, 120 mL 5 M NaCl and 2 mL 100% Tween 20 per 4 L). • Kinase Reaction Buffer: 50 mM Tris-HCl pH 8.5, 10 mM MgCl2, 1 mM DTT. (Dilute 10× stock by 1:10 and add 100 μL 1M DTT per 100 mL prior to assay). • Diethanolamine Buffer: 1 M diethanolamine pH 9.8, 0.5 mM MgCl2. • Stop Solution: 1 M NaOH. • MCM2 was expressed and purified in-house and used in the assay at a final assay concentration of 436 ng/well. • Cdc7/ASK is purchased from commercial suppliers and used in the assay at a final assay concentration of 37.97 ng/well or 20.63 nM. • ATP used as a final assay concentration of 2 μM. • Primary Antibody: Rabbit anti-Phospho MCM2 (S53 Antibody (BL3353)), is purchased from commercial suppliers at 0.2 mg/mL and used at a final assay concentration by diluting 1:800 in TBS. • Secondary Antibody: Anti-Rabbit/AP Antibody is supplied is purchased from commercial suppliers at 1 mg/mL and used at a final assay concentration by diluting 1:2000 in TBS. • Development Reagent: Dissolve one 20 mg PNPP tablet (Sigma, product N2765, 20 mg per tablet) per 20 mL diethanolamine Buffer (or one 5 mg PNPP tablet per 5 mL diethanolamine buffer). Cover in foil and leave shaking on a roller shaker at room temperature for up to an hour to dissolve. Methods • 1. Add 20 μL 1× working stock of Substrate (MCM2) in TBS to all wells of a clear, 384 well, Nickel-chelate microplate to give a final concentration of 250 ng/well. Incubate at room temperature for at least 1 hour. Plates can be pre-coated for 1 hour and stored at 4° C. for up to 8 days. • 2. Wash with TBS+0.05% Tween 20 (80 μL x 3). • 3. Add 2 μL 10× test compounds, including the positive control, in 40% DMSO/water to ‘test’ wells. Add 2 μL 40% DMSO/water to ‘control’ and ‘blank’ wells. The final DMSO concentration will be 4%. • 4. Add 13 μL CDCl7/ASK Kinase (1.5× stock) in Kinase Reaction Buffer to ‘test’ and ‘control’ wells to give a final concentration of […]. Add 13 μL Kinase Reaction Buffer to ‘blank’ wells. • 5. Add 5 μL ATP (4× stock) in Kinase Reaction Buffer to all wells to give a final concentration of 2 μM. • 6. Incubate at room temperature for 90 minutes. • 7. Wash with TBS+0.05% Tween 20 (80 μL x 3). • 8. Add 20 μL 1× working solution of Primary Antibody in TBS to all wells. Incubate at room temperature for 30 minutes. • 9. Wash with TBS+0.05% Tween 20 (80 μL x 3). • 10. Add 20 μL 1× working solution of Secondary Antibody in TBS to all wells. Incubate at room temperature for 30 minutes. • 11. Wash with TBS+0.05% Tween 20 (80 μL x 3). • 12. Add 20 μL 1× Development Reagent to all wells. • 13. Incubate at room temperature for 2 hours. Stop the reaction by adding 20 μL Stop Solution to all wells and record Absorbance on a Pherastar plate reader.
Percentage inhibition values were calculated from absorbance values, using the no compound (DMSO) and no enzyme control values as 0% and 100% inhibition, respectively. IC50 determination was performed with ExcelFit software (IDBS) using curve fit 205. Z′ factors were determined for each plate tested and were all above 0.5.

Cdc7/Dbf4 = Cdc7/Dbf4 (Homo sapiens, UniProt O00311); experiment: Cdc7 biochemical assay Method 2: Cdc7/Dbf4 Enzyme TR-FRET Assay measuring pS40MCM2; settings: pS40 MCM2 peptide, 1 μM ATP, 25° C., 120 minutes, read-out: Biochemical Method 2 (pIC50) (converted)
Cdc7/Dbf4, sequence (O00311 whole entry): as the sequence (O00311 whole entry) above
Cdc7/Dbf4, sequence (Q9UBU7 whole entry partner): as the sequence (Q9UBU7 whole entry partner) above
Experimental: This protocol describes a method for assaying a compounds' ability to inhibit Cdc7 activity by measuring pS40MCM2 levels in a Cdc7/Dbf4 Enzyme TR-FRET Assay.
2.5 nM Cdc7/Dbf4 was incubated with 100 nM of biotin-labelled peptide 35-TDALTS(pS)PGRDLP in the presence of 1 μM ATP at 25° C. for 120 minutes. The phosphorylation of the peptide was detected using TR-FRET. Anti-Mcm2 (pS40) antibody, Terbium anti-rabbit secondary antibody and Streptavidin-Alexa Fluor488 form the detection system.

Cdc7 [2] = biological target: T1, Cdc7; experiment: Cdc7 cell pharmacodynamics assay Method 1: pS53MCM2 levels in HCT116 cells; type: cell-based; set-up: endogenous in cells; settings: 6 hours treatment, read-out: Biomarker Method 1 (pEC50) (converted)
Excerpt: This protocol describes a method to investigate the inhibition of Cdc7 activity of compounds by measuring pS53MCM2 levels in cells after treatment.
• HCT116 cells (wild type P53 positive) • McCoys 5A media (PAA Laboratories Ltd, E15-022) • 10% FCS (Sera Laboratories International Ltd, EU000F Batch: 108005) • 100× L-Glutamine (Invitrogen, 25030-024) • D-PBS without CaCl2 and MgCl2 (Invitrogen, ref. 14190-094) • Trypsin/EDTA (Invitrogen 25300-054) • 2% BSA in PBS • Cell Extraction Buffer (Invitrogen FNN0011) • Protease inhibitor cocktail (Sigma P-2714) • PMSF 0.3M stock in DMSO (Sigma P7626) • Antibody—rabbit pMCM2 Ser53 (Bethyl #A300-756A) • Antibody—goat MCM2 (Bethyl #A300-122A) • Antibody—goat Anti Rabbit IgG HRP (Perbio Science UK Ltd 31462) • 1×PBS • FACE Wash buffer (0.02% Triton X100 in 1×PBS) • SuperSignal ELISA Pico Chemiluminescent Substrate (Perbio Science UK Ltd 37070) Method • 72 hours prior to the start of the experiment plate 1×10^6 HCT116 cells in a 150 cm^2 flask in complete McCoys 5A media (+10% FCS+1× L-glutamine). • Plate 20,000 HCT116 cells per well in standard TC treated 96 well plate in 100 μL complete McCoys 5A media. • Allow cells to settle overnight in incubator set at 37° C. and 5% CO2. • Remove intermediate plate from fridge and place at 37° C. overnight to allow to equilibrate. • Cell treatment: cell assay plate 100 μL; daughter to cell transfer volume 3.33 μL; daughter volume 45 μL; mother plate to daughter volume 5 μL. • Once all cells are treated remove the cells to the incubator and incubate for 6 hours. • Dilute the capture antibody (total MCM2 #A300-122A) 1 in 250 in the required volume of PBS (5 mL per assay plate) and add 50 μL to each well of a Hybond plate excluding wells 12E to 12H. In these wells add 50 μL PBS. Seal the plate and incubate at room temperature fora minimum of 2 hours. • Defrost aliquot of Invitrogen Cell Extraction Buffer (FNN0011) on ice and supplement with appropriate volume of both Sigma protease inhibitor cocktail (P-2714) and PMSF (final cone 1 mM from a […] in DMSO). • After the 6 hour cell treatment time tap out the media from the assay plates and place them in the −70° C. freezer for at least 5 minutes. • Remove plates from freezer and add 20 μL of ice cold complete lysis buffer on ice. Incubate cells for 30 minutes at 4° C. • Add 80 μL per well 2% BSA. • Transfer 80 μL from the lysis plate to the same wells in the capture/ELISA plate. Cover with plate seal and incubate plates overnight at 4° C. • Wash plates with PBS, remove any residual remaining liquid and add 50 μL per well of pMCM2 Ser53 antibody (#A300-756A) diluted 1 in 100 in 2% BSA. Cover plate and incubate at room temperature for 2 hours with gentle shaking. • Wash plates with PBS, remove any residual remaining liquid and Incubate with 50 μL goat anti rabbit antibody (1 in 800 dilution in 2% BSA) for 1 hour at room temperature. • Wash plates with PBS, remove any residual remaining liquid and add 50 μL mixed SuperSignal Pico substrate. • Incubate each plate for 5 minutes at room temperature shielding the plates from direct light (with a cover plate). Read plates with the luminescent detection. Method 2

T1 sequence (O00311 whole entry): as the sequence (O00311 whole entry) above
T1 sequence (Q9UBU7 whole entry partner): as the sequence (Q9UBU7 whole entry partner) above

Structure (SMILES) | EC50 (Cdc7 [1]) [µM] | IC50 (Cdc7/ASK) [µM] | IC50 (Cdc7/Dbf4) [µM] | EC50 (Cdc7 [2]) [µM]
CC1CNCCN1c1nc(-c2c[nH]c3ncccc23)[nH]c(=O)c1Cl (stereo in doubt) [Compound 55, 5-chloro-4-[(2R)-2-methylpiperazin-1-yl]-2-(1H-pyrrolo[2,3-b]pyridin-3-yl)-1H-pyrimidin-6-one 2,2,2-trifluoroacetic acid] | 0.1 | – | – | –
Cc1[nH]ncc1-c1nc(C2CCOCC2)c(Cl)c(=O)[nH]1 [Compound 16, 5-chloro-2-(3-methyl-1H-pyrazol-4-yl)-4-tetrahydropyran-4-yl-1H-pyrimidin-6-one] | – | 0.00275 | 0.00724 | –
Cc1ncsc1-c1nc(N2CCN[C@@H](C(C)C)C2)c(Cl)c(=O)[nH]1 [Compound 39, 5-chloro-4-[(3S)-3-isopropylpiperazin-1-yl]-2-(4-methylthiazol-5-yl)-1H-pyrimidin-6-one] | – | 0.0214 | 0.00741 | 0.339
Cc1[nH]ncc1-c1nc(N2CCOCC2)c(Cl)c(=O)[nH]1 [Compound 51, 5-chloro-2-(5-methyl-1H-pyrazol-4-yl)-4-morpholino-1H-pyrimidin-6-one] | – | – | 0.00589 | –
C[C@@H]1COCCN1c1nc(-c2cnn3ccccc23)[nH]c(=O)c1Cl [Compound 54, 5-chloro-4-[(3R)-3-methylmorpholin-4-yl]-2-pyrazolo[1,5-a]pyridin-3-yl-1H-pyrimidin-6-one] | – | – | 0.0724 | –
